Reference: patent US7265111B2, “Adenosine analogues and their use as pharmaceutical agents” (Sanofi-Aventis Deutschland GmbH, priority 2002, dated 2007)

Key:
[1] = target: T1, Adenosine A2a receptor (Homo sapiens, UniProt P29274); experiment: FLIPR intracellular Ca2+ functional assay, recombinant CHO cells (A2a/Gα16); type: cell-based
T1 construct: expressed in transfected cells; host or cells: CHO (Chinese hamster ovary) cells, stably double-transfected
Procedure: (§1) In Vitro Functional Assays with Recombinant Cell Lines:
(§2) Functional assays were performed by detection of agonist-induced changes in the intracellular concentration of Ca^2+ in recombinant cell lines expressing adenosine receptor subtypes using the FLIPR™ (fluorescence imaging plate reader, Molecular Devices) technology. To allow optimal signalling through Ca^2+, chinese hamster ovary (CHO) cells were stably double-transfected with cDNAs to achieve expression of suitable combinations of adenosine receptor subtypes (A1, A2a, A2b or A3) with either G-protein Gα16 or hybrid protein Gα6qi4myr (German Patent Application no. 100333532.2). Optimal signals were achieved using combinations as follows:
(§3) For assays, recombinant cells were seeded in 96-well dishes (50000 cells/well) and grown overnight. Medium was then removed and cells incubated for 1 hour in buffer containing the dye Fluo-4. After incubation with dye, cells were washed, test compound added and changes in intracellular Ca^2+ concentration measured by FLIPR. Measured values were expressed as % change relative to controls (0%: no test compound added; 100%: 1 μM Adenosine added) and used for calculation of dose-response curves and subsequent determination of EC50 values.

[2] = target: T2, Adenosine A3 receptor (Homo sapiens, UniProt P0DMS8); experiment: FLIPR intracellular Ca2+ functional assay, recombinant CHO cells (A3/Gα6qi4myr); type: cell-based; settings: for EC50: read-out: EC50 values (agonist activity at adenosine receptors) A3
T2 construct: expressed in transfected cells; host or cells: CHO (Chinese hamster ovary) cells, stably double-transfected
T2 sequence (P0DMS8 1-318): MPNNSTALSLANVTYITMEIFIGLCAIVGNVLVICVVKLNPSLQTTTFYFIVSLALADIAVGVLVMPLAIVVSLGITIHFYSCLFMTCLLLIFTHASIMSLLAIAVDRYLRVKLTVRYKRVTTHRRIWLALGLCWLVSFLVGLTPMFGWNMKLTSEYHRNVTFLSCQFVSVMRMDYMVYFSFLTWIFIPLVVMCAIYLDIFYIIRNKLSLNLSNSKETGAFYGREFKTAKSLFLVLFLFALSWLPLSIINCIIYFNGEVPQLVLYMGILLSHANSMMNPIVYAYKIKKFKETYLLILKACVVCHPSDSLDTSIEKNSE
Procedure: as §1, §2, §3

[3] = target: T3, Adenosine A1 receptor (Homo sapiens, UniProt P30542); experiment: FLIPR intracellular Ca2+ functional assay, recombinant CHO cells (A1/Gα6qi4myr); type: cell-based; settings: read-out: EC50 values (agonist activity at adenosine receptors) A1
T3 construct: expressed in transfected cells; host or cells: CHO (Chinese hamster ovary) cells, stably double-transfected
T3 sequence (P30542 1-326): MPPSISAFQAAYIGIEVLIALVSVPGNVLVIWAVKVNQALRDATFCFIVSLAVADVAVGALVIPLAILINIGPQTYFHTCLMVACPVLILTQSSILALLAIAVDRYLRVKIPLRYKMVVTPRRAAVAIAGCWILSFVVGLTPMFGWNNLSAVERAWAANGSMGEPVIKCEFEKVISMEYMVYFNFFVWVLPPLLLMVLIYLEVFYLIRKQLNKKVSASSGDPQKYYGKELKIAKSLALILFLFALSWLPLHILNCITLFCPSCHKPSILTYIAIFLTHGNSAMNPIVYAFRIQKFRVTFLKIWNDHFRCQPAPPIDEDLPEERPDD
Procedure: as §1, §2, §3

[4] = target: T4, Adenosine A2b receptor (Homo sapiens, UniProt P29275); experiment: FLIPR intracellular Ca2+ functional assay, recombinant CHO cells (A2b/Gα16); type: cell-based; settings: for EC50: read-out: EC50 values (agonist activity at adenosine receptors) A2B
T4 construct: expressed in transfected cells; host or cells: CHO (Chinese hamster ovary) cells, stably double-transfected
T4 sequence (P29275 1-332): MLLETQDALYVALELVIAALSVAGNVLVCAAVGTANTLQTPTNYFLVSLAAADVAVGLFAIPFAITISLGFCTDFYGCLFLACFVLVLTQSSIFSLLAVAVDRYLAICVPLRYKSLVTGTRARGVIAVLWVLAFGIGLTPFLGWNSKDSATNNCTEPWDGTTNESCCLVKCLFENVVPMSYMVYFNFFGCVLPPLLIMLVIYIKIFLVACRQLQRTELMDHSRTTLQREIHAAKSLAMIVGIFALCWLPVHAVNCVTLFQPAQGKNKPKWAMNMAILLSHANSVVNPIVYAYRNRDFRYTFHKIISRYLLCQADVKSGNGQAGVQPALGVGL
Procedure: as §1, §2, §3

[5] = tested on: isolated rat adipocytes; experiment: Antilipolytic effect in isolated rat adipocytes; type: cell-based; settings: Adipocyte, adenosine deaminase-induced lipolysis (glycerol and free fatty acid release)
Procedure: E. Antilipolytic Effect in Isolated Rat Adipocytes:
For the preparation of isolated rat adipocytes, epididymal fat pads were obtained from male Sprague-Dawley rats (150-180 g) killed by decapitation. The main fat pad blood vessel was removed with forceps and the pads were cut into small pieces. Digestion was carried out at 37° C. in a shaking water bath by treating 1 g of sliced pad for 20 min with 3 ml of 1 mg/ml collagenase (type I, CLS, Worthington) in 1% BSA, fraction V, in KRH (Krebs-Ringer solution buffered with 25 mM HEPES/KOH, pH 7.4, containing 2.5 mM CaCl2, 2 mM glucose, 1 mM sodium pyruvate, 0.5 units/ml adenosin deaminase and 200 nM phenylisopropyl adenosine). The adipocytes were filtered through nylon mesh of sufficient pore size that no pressure other than gentle teasing with a plastic spatula was necessary for the cells to pass through. After three cycles of centrifugation (500 g, 1 min), aspiration of the infranatant. and resuspension in KRH containing 1% BSA, the cells were suspended in KRH containing 4% defatted BSA. Small aliquots of the final suspension were aspirated into capillary hematocrit tubes and centrifuged for 1 min in a Microhematocrit centrifuge in order to determine what fraction of the suspension consisted of fat cells. Results expressed as activities per unit volume of packed adipocytes (corresponding to equivalent numbers of cells) are based on this centrifugation procedure. Lipolysis was initiated by addition of a 100 μl aliquot of the adipocyte suspension to 700 μl of incubation medium [prewarmed to 37° C. and consisting of KRH, 4% defatted BSA and 1 U/ml adenosine deaminase (type I, Sigma)], with or without addition of 8 μl of a solution of the appropriate test substance in 100% DMSO (at a concentration corresponding to 100 times its concentration in the final mixture). […] Incubations were performed in 5 ml polypropylene vials agitated in a shaking water bath (140 cycles/min, amplitude 4.5 cm) at 37° C. for 20, 40, and 60 min. The incubation was terminated by addition of 200 μl of 50 mM EDTA buffered to pH 7.4 with Tris. For the glycerol determination, the whole mixture was mixed rapidly and homogenized with a ground glass pestle in a 1 ml ground glass homogenizing tube (10 pulses). The homogenate was transferred immediately to a 1.5 ml Eppendorf cup precooled to 4° C., after which the extracts were maintained at 4° C. The homogenate was then centrifuged (10,000 g, 15 min) and the infranatant below the fat cake removed with a glass Pasteur pipette. taking care not to aspirate the membrane pellet. and transferred to another Eppendorf cup. 300 μl aliquots of the infranatant were added to 300 μl volumes of 10% (w/v) HClO4. The precipitate was in each case removed by centrifugation (10,000 g, 2 min) and the supernatant neutralized with 20% (w/v) KOH, followed by addition of 50 μl of 1 M Tris/HCl, pH 7.4, A 50 μl sample was then incubated (5 min, 37° C.) with 1 ml of 0.1 M HEPES/KOH, pH 7.5, containing 2 mM ATP, 0.5 mM 4-aminoantipyrine, 1 mM EDTA, 0.5 U glycerol kinase, 4 U glycerol-3-phosphate oxidase, 2 U peroxidase, 2.7 mM p-chlorophenol, 0.04% Triton X-100 and 2 mM MgSO4.7H2O, and the glycerol content determined from the absorbance at 505 nm. For the determination of free fatty acids, 300 μl aliquots of the incubation mixture were added to 3 ml of chloroform/heptane (1:1 v/v) containing 2% (v/v) methanol. and the liberated free fatty acids determined with copper reagent and bathocuproine. The inhibitory activities of the cyclipostins were calculated from the combined results (glycerol and free fatty acid release) by plotting the log of the dose against the percent response (with the adenosine deaminase-induced lipolysis set at 100%). Data in the linear portion of the log (dose)-percent response curves were analyzed using parallel-line bioassay techniques.

[6] = tested on: isolated guinea pig atrium; experiment: Effect on the isolated guinea pig atrium (contractile force, heart rate)
Procedure: D. Effect on the Isolated Guinea Pig Atrium:
Guinea pigs of either sex were killed by a blow on the back of the neck and exsanguinated.
Their heart was taken out and the atria removed. The preparation (atrium) was immediately transferred to Ringer solution (JT 431) which was at a temperature of 32° C. and was bubbled with a mixture of 95% O2 and 5% CO2. The composition of the solution in […] was: NaCl 9.0; KCl 0.42 CaCl2 0.24; NaHCO3 0.2; glucose 1.0. The atrium beats spontaneously with an initial tension of 500 mg. The contractile force and the heart rate was recorded with a computer program and automatically calculated (B-mon and A-mon PC programs. Fa. Jäckel. Hanau. GERMANY). After equilibration, the test compound was added to a final bath concentration. N was 4-6 per concentration.

T1 sequence (P29274 whole entry): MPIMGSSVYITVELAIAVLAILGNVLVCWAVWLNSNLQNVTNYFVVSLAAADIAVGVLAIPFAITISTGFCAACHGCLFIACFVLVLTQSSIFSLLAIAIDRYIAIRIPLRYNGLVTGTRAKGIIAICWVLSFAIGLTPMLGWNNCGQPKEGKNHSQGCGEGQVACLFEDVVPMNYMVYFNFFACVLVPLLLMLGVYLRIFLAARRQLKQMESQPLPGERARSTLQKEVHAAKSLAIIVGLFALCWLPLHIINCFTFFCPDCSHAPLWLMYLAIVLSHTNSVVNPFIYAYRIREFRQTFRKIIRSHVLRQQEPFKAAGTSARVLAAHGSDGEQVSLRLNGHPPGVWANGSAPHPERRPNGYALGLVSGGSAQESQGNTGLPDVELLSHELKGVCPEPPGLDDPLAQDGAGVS

SMILES | EC50 values (agonist activity at adenosine receptors) A2A [1] | EC50 [2] [µM] | EC50 [3] [µM] | EC50 [4] [µM] | IC50 [5] [µM] | Heart rate ([6]; at 1–100 μM) | melting point [°C] | further results
O[C@@H]1[C@@H](CF)C[C@@H](n2cnc3c(N[C@H]4CCN(c5cccc(Cl)c5)C4)ncnc32)[C@@H]1O [Example 1, (1R,2S,3R,5S)-3-{6-[1-(3-chloro-phenyl-1-yl)-pyrrolidin-3(S)-ylamino]-purin-9-yl}-5-fluoromethyl-cyclopentane-1,2-diol] | inactive | > 50 | 0.15 | > 30 | 0.005 | no effect at 1–100 μM |  | 
CC[C@H](Cc1sccc1Cl)Nc1ncnc2c1ncn2[C@@H]1C[C@H](CF)[C@@H](O)[C@H]1O [Example 2, (1R,2S,3R,5S)-3-{6-[(R)-1-(3-chloro-thiophen-2-ylmethyl) -propylamino]-purin-9-yl}-5-fluoromethyl-cyclopentane-1,2-diol] | inactive | > 40 | 0.02 | 3.4 | 0.02 |  |  | Contractile force ([6]; at 10 μM): −4% at 10 μM; Heart rate ([6]; at 10 μM): −4% at 10 μM
O[C@@H]1[C@@H](COC(F)(F)F)C[C@@H](n2cnc3c(N[C@H]4CCN(c5cccc(Cl)c5)C4)ncnc32)[C@@H]1O [Example 3, (1R,2S,3R,5R)-3-{6-[1-(3-chloro-phenyl-1-yl)-pyrrolidin-3(S)-ylamino]-purin-9-yl}-5-trifluoromethoxymethyl-cyclopentane-1,2-diol] |  |  | 3.69 |  |  |  |  | EC50 ([1]; read-out: EC50 values (agonist activity at adenosine receptors) A2A): > 30 µM; EC50 values (agonist activity at adenosine receptors) A3 [2]: inactive; EC50 values (agonist activity at adenosine receptors) A2B [4]: inactive
O[C@@H]1[C@@H](CF)C[C@@H](n2cnc3c(N[C@H]4CCN(c5ccc(C(F)(F)F)cn5)C4)ncnc32)[C@@H]1O [Example 4, (1R,2S,3R,5S)-3-{6-[1-(5-trifluoromethyl-pyridin-2-yl)-pyrrolidin-3(S)-ylamino]-purin-9-yl}-5-fluoromethyl-cyclopentane-1,2-diol] | Inactive | > 50 | 1.61 | > 30 | 0.1 | no effect at 1–100 μM |  | Contractile force ([6]; at 10 μM): −7% at 10 μM
O[C@@H]1[C@@H](CF)C[C@@H](n2cnc3c(N[C@H]4CCN(c5ccc(Cl)cn5)C4)ncnc32)[C@@H]1O [Example 6, (1R,2S,3R,5S)-3-{6-[1-(5-chloro-pyridin-2-yl)-pyrrolidin-3(S) -ylamino]-purin-9-yl}-5-fluoromethyl-cyclopentane-1,2-diol] | Inactive |  | 1.25 | > 30 | 0.01 | no effect at 1–100 μM |  | EC50 values (agonist activity at adenosine receptors) A3 [2]: inactive; Contractile force ([6]; at 30 μM): −3% at 30 μM
O[C@@H]1[C@@H](COC(F)(F)F)C[C@@H](n2cnc3c(N[C@H]4CCN(c5ccc(C(F)(F)F)cn5)C4)ncnc32)[C@@H]1O [Example 8, (1R,2S,3R,5R)-3-{6-[1-(5-trifluoromethyl-pyridin-2-yl)-pyrrolidin-3(s)-ylamino]-purin-9-yl}-5-trifluoromethoxymethyl-cyclopentane-1,2-diol] |  |  |  |  |  |  | 142 | 
O[C@@H]1[C@@H](COC(F)(F)F)C[C@@H](n2cnc3c(N[C@H]4CCN(c5ccc(Cl)cn5)C4)ncnc32)[C@@H]1O [Example 9, (1R,2S,3R,5R)-3-{6-[1-(5-chloro-pyridin-2-yl)-pyrrolidin-3(S) -ylamino]-purin-9-yl}-5-trifluoromethoxymethyl-cyclopentane-1,2-diol] |  |  |  |  |  |  | 130 | 
CC[C@H](Cc1sccc1Cl)Nc1ncnc2c1ncn2[C@@H]1C[C@H](COC(F)(F)F)[C@@H](O)[C@H]1O [Example 11, (1R,2S, 3R, 5R)-3-{6-[(R)-1-(3-chloro-thiophen-2-ylmethyl) -propylamino]-purin-9-yl}-5-trifluoromethoxymethyl-cyclopentane-1,2-diol] |  |  |  |  |  |  | 140 | 
